Source: article PMC6262536 (Cells, 2018)

Legend:
Assay in all cases: cells
[1] = test system: human lung adenocarcinoma (A549); type: cell-based; details: A549, 72 h, SRB, mean ± SD
Source text: (§1) The BALB/3T3 cell line was purchased from the American Type Culture Collection (ATCC, Manassas, VA, USA), A549 and MCF-7 cell lines—from European Collection of Authenticated Cell Cultures (Salisbury, UK), LoVo cell line was purchased from the ATCC (ATCC, Manassas, VA, USA), and LoVo/DX by courtesy of Prof. E. Borowski (Technical University of Gdańsk, Gdańsk, Poland). All the cell lines are maintained in the Institute of Immunology and Experimental Therapy (IIET), Wroclaw, Poland. […] Human breast adenocarcinoma cell line was cultured in mixture of Eagle medium (IIET, Wroclaw, Poland), supplemented with 10% fetal bovine serum, 2 mM L-glutamine, 8 μg/mL insulin and 1% amino-acids (Sigma-Aldrich, Merck KGaA, Saint Louis, MO, USA). […] Murine embryonic fibroblast cells were cultured in Dulbecco medium (Life Technologies Limited, Paisley, UK), supplemented with 10% fetal bovine serum (GE Healthcare, Logan, UT, USA) and 2 mM glutamine (Sigma-Aldrich, Merck KGaA, Saint Louis, MO, USA). All culture media contained antibiotics: 100 U/mL penicillin and 100 μg/mL streptomycin (Polfa-Tarchomin, Warsaw, Poland). All cell lines were cultured during entire experiment in humid atmosphere at 37 °C and 5% CO2. […] The procedure is repeated every year or in the case of less frequently used lines: after thawing.
(§2) Twenty-four hours before adding the tested compounds, all cell lines were seeded in 96-well plates (Sarstedt, Nümbrecht, Germany) in appropriate media with 10^4 cells per well. All cell lines were exposed to each tested agent at four different concentrations in the range 100–0.01 μg/mL for 72 h. […] Additionally, all cell lines were exposed to DMSO (solvent used for tested compounds) (POCh, Gliwice, Poland) at concentrations corresponding to those present in tested agents’ dilutions. After 72 h sulforhodamine B assay (SRB) was performed.
(§3) After 72 h of incubation with the tested compounds, cells were fixed in situ by gently adding of 50 μL per well of cold 50% trichloroacetic acid TCA (POCh, Gliwice, Poland) and were incubated at 4 °C for one hour. Following, wells were washed four times with water and air dried. Next, 50 μL of 0.1% solution of sulforhodamine B (Sigma-Aldrich, Merck KGaA, Saint Louis, MO, USA) in 1% acetic acid (POCh, Gliwice, Poland) were added to each well and plates were incubated at room temperature for 0.5 h. After incubation time, unbound dye was removed by washing plates four times with 1% acetic acid whereas stain bound to cells was solubilized with 10 mM Tris base (Sigma-Aldrich, Steinheim, Germany). Absorbance of each solution was read at Synergy H4 Hybrid Multi-Mode Microplate Reader (BioTek Instruments, Inc., Winooski, VT, USA) at the 540 nm wavelength.
(§4) Compounds at each concentration were tested in triplicates in single experiment and each experiment was repeated at least three times independently. The Resistance Index (RI) was defined as the ratio of IC50 for a given compound calculated for resistant cell line to that measured for its parental drug sensitive cell line (Table 1).

[2] = test system: normal murine embryonic fibroblast cell line (BALB/3T3); type: cell-based; details: normal murine fibroblasts BALB/3T3, 72 h, SRB, mean ± SD
Source text: as §1, §2, §3, §4

[3] = test system: doxorubicin-resistant subline (LoVo/DX); type: cell-based, human; details: 72 h, SRB, mean ± SD
Source text: as §1, §2, §3, §4

[4] = test system: human breast adenocarcinoma (MCF-7); type: cell-based; details: MCF-7, 72 h, SRB, mean ± SD
Source text: as §1, §2, §3, §4

[5] = test system: human colon adenocarcinoma cell line (LoVo); type: cell-based; details: 72 h, SRB, mean ± SD
Source text: as §1, §2, §3, §4

SMILES	IC50 ([1]; Homo sapiens)	IC50 ([2]; Mus musculus)	IC50 ([3]; Homo sapiens)	IC50 [1]	IC50 [4]	IC50 [2]	IC50 [5]	IC50 [3]	IC50 ([4]; Homo sapiens, MCF7)	IC50 ([5]; Homo sapiens)
COc1cccc2c1C(=O)c1c(O)c3c(c(O)c1C2=O)C[C@@](O)(C(=O)CO)C[C@@H]3O[C@H]1C[C@H](N)[C@H](O)[C@H](C)O1 [Doxorubicin, reference compound]	258 ± 44 nM	166 ± 74 nM	4750 ± 990 nM							
N.N.[Cl][Pt][Cl] [Cisplatin, reference compound]				6370 ± 1410 nM	10700 ± 753 nM	3900 ± 1500 nM	4370 ± 730 nM	5700 ± 630 nM		
COc1c(Br)c2c(c(OC)c1OC)-c1ccc(SC)c(=O)cc1[C@@H](NC(C)=O)CC2 [Compound 6, 4-bromothiocolchine]	10 ± 0.1 nM	103 ± 89 nM	135 ± 12 nM						15 ± 2 nM	14 ± 4 nM
COc1c(I)c2c(c(OC)c1OC)-c1ccc(SC)c(=O)cc1[C@@H](NC(C)=O)CC2 [Compound 8, 4-iodothiocolchicine]	11 ± 2 nM	115 ± 44 nM	642 ± 84 nM						17 ± 6 nM	7 ± 2 nM
COc1c(Cl)c2c(c(OC)c1OC)-c1ccc(SC)c(=O)cc1[C@@H](NC(C)=O)CC2 [Compound 4]	22 ± 2 nM	22 ± 2 nM	111 ± 44 nM						22 ± 2 nM	22 ± 2 nM
COc1c(I)c2c(c(OC)c1OC)-c1ccc(OC)c(=O)cc1[C@@H](NC(C)=O)CC2 [Compound 7, 4-iodocolchicine]	94 ± 6 nM	135 ± 56 nM	2780 ± 450 nM						98 ± 29 nM	10 ± 2 nM
COc1c(Br)c2c(c(OC)c1OC)-c1ccc(OC)c(=O)cc1[C@@H](NC(C)=O)CC2 [Compound 5, 4-bromocolchicine]	105 ± 8 nM	142 ± 73 nM	1550 ± 170 nM						27 ± 8 nM	84 ± 21 nM
COc1c(Cl)c2c(c(OC)c1OC)-c1ccc(OC)c(=O)cc1[C@@H](NC(C)=O)CC2 [Compound 3, 4-chlorocolchicine]	46 ± 35 nM	138 ± 69 nM	784 ± 280 nM						23 ± 5 nM	69 ± 12 nM
